Data as given in patent publication US20180110762A1, “Compositions Methods for Treating Chronic Kidney Disease” (Merck Sharp & Dohme Corp, priority 2015, published 2018).
pIC50: −log10 of the molar value.

Experiments:
[1] = target: T1, Human recombinant integrin αvβ3 (Homo sapiens, UniProt P05106+P06756); assay: Thermal shift assay (differential scanning fluorimetry), αvβ3; assay type: binding; details: αvβ3, 20 μM Compound A
T1 construct: purchased R&D Systems
Procedure: Differential scanning fluorimetry was performed on a LightCycler 480 II, real-time PCR instrument (Roche Diagnostics). Human recombinant integrins from R&D Systems (αvβ1, αvβ3 and α5β1) were reconstituted at a concentration of […] in assay buffer (20 mM HEPES, pH=7.3, 100 mM NaCl, 1 mM MgCl2, 1 mM MnCl2) and diluted in assay buffer with Sypro orange (SIGMA) to a final concentration of 400 nM integrin and 5× Sypro orange. A volume of 4.9 μL of this mixture of protein and dye was transferred to a 384-well plate and 100 nL of DMSO or Compound A, dissolved in DMSO, were added using an Echo 555 instrument (Labcyte). The final concentration of Compound A in the assay was 20 μM. After mixing, the assay plate was sealed, spun at 1,000×g for two minutes, and subsequently heated from 25 to 99° C. over the course of 31 min in the LightCycler 480 II instrument. Fluorescence intensity was measured using excitation/emission wavelengths of 465 and 580 nm, respectively. Changes in protein thermal stability (ΔTm) upon compound binding were analyzed by using LightCycler 480 (software provided by the manufacturer).

human podocytes = assay: Oris cell migration assay, PAN-induced podocyte motility, fibronectin coated plate; assay type: cell-based; details: 48 h; for % migrated cells vs control cells: FN plate
Procedure: The effects of Compound A on podocyte motility were evaluated using Oris cell migration assay kit in 96-well plates (coated with either vitronectin or fibronectin). The Oris™ Cell Migration Assay is designed with a unique cell seeding stopper or biocompatible gel, detection mask, and stopper tool. These unique plate designs generate highly reproducible results using a microscope, digital imaging system. 7 to 10-day differentiated human podocytes (100 ul of 50,000 cells/ml) were seeded in each well of the ORIS plate. After sitting at room temperature for about 15 minutes, the plate was placed into 37° C. incubator and podocytes were incubated with complete podocyte medium for 24 h. Stoppers from each well (keeping stoppers in 4 wells which were served as time zero control) were carefully removed, medium discarded, and fresh (10% FBS) podocyte medium added to each well. Podocytes were pretreated with Compound A (10 uM to 0.01 nM) for 2 h prior to puromycin animonucleoside (PAN, 30 ug/ml or 15 ug/ml) treatment. Podocytes were then treated with PAN in the presence or absence of Compound A at different concentrations (ranging from 10 uM to 0.01 nM) in 10% FBS medium for 48 h. Podocytes were then fixed with 4% paraformaldehyde in PBS for 30 minutes (adding 50 ul to each well). After discarding the fixative, podocytes were stained with Hoechst 33342 (stock […] working concentration at 5 uM) for 30 min. Podocytes were then washed with PBS three times. Finally, after adding 100 ul of PBS to each well, plate was sealed with a black cover and kept at 4° C. until image analysis. Images of podocyte motility were captured using Acumen eX3 (manufacturer TTP Labtech Ltd. address: Melbourn Science Park, Melbourn, Hertfordshire SG8 6EE, United Kingdom).
Effect of Compound A (“A”) on human podocyte motility was examined using Oris cell migration assay in fibronectin (FN) coated-96-well plate.

T1 sequence (P06756 31-992 limits assumed): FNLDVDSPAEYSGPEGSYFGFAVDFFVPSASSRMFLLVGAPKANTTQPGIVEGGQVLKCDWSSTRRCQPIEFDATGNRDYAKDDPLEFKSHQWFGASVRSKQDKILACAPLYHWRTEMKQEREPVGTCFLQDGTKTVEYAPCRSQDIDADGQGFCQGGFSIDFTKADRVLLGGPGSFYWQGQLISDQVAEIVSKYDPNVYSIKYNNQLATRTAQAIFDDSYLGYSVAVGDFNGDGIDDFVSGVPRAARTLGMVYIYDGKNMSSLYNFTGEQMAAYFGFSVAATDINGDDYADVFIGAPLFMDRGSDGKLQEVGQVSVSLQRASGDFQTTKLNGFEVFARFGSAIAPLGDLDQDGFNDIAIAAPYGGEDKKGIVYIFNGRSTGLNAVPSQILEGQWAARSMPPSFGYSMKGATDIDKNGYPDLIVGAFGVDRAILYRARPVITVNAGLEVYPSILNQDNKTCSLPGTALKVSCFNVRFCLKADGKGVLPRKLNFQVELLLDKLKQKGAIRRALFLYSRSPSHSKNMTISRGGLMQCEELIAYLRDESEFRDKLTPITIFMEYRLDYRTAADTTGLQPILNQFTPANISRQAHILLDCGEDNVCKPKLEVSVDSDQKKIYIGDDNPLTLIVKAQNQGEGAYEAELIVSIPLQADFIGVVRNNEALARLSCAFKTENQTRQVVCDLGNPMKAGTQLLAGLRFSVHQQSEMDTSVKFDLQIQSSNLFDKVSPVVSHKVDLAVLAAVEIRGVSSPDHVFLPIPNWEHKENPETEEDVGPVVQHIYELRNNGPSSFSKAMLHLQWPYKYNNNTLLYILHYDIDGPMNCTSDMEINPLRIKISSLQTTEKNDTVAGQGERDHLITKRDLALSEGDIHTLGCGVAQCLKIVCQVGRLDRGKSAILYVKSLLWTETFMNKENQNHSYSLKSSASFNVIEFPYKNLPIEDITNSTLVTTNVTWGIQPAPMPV
T1 sequence (P05106 27-718 limits assumed): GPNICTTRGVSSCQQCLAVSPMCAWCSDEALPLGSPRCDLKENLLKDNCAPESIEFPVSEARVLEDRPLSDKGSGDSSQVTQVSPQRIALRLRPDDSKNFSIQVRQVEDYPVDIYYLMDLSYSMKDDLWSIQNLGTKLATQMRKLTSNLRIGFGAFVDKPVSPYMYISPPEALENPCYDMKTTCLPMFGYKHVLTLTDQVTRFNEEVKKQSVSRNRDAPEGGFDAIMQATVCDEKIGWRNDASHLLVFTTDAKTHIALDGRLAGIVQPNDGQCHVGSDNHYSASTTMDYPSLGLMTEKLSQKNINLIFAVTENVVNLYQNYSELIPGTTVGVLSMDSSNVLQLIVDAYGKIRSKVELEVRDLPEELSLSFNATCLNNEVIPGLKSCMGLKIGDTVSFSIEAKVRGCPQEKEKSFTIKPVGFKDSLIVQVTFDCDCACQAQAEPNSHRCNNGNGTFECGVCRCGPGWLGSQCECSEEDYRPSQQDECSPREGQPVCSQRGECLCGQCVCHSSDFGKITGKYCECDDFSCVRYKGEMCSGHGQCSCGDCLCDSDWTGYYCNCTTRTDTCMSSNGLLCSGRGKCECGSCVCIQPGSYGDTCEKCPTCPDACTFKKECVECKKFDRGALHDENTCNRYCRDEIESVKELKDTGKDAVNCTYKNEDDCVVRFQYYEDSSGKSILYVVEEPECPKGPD

COc1ccc([C@H](CC(=O)O)N2CCN(CCCc3ccc4c(n3)NCCC4)C2=O)cn1 [Compound A, 3-{2-Oxo-3-[3-(5,6,7,8-tetrahydro-[1,8]naphthyridin-2-yl)-propyl]imidazolidin-1-yl}-3 (S)-(6-methoxy-pyridin-3-yl)-propionic acid]
ΔTm at 20 µM ([1]; first of two experiments): 21.5 °C | ΔTm at 20 µM ([1]; second of two experiments): 16.4 °C | pIC50 (human podocytes; Homo sapiens, fibronectin coated plates, PAN 15 ug/ml, read-out: IC50, inhibition of puromycin-induced human podocyte motility): 8.95 | % migrated cells vs control cells (human podocytes; PAN 15 ug/ml + A 0.01 nM): 76.3% | % migrated cells vs control cells (human podocytes; PAN 15 ug/ml + A 0.0316 nM): 80.3% | % migrated cells vs control cells (human podocytes; PAN 15 ug/ml + A 0.1 nM): 84.9% | % migrated cells vs control cells (human podocytes; PAN 15 ug/ml + A 0.316 nM): 83.6% | % migrated cells vs control cells (human podocytes; PAN 15 ug/ml + A 1 nM): 72.9% | % migrated cells vs control cells (human podocytes; PAN 15 ug/ml + A 3.16 nM): 64.8% | % migrated cells vs control cells (human podocytes; PAN 15 ug/ml + A 10 nM): 54.1% | % migrated cells vs control cells (human podocytes; PAN 15 ug/ml + A 100 nM): 35.8% | % migrated cells vs control cells (human podocytes; PAN 15 ug/ml + A 1 uM): 36.3% | % migrated cells vs control cells (human podocytes; PAN 15 ug/ml + A 10 uM): 33.1%
